Data taken from patent publication US10933064B2, “Crystalline forms of 5-bromo-2,6-di(1H-pyrazol-1-yl)pyrimidin-4-amine and new salts” (Novartis AG, priority 2017, dated 2021).
≈ marks a conversion by molar mass, not a printed value.

Legend:
[1] = Solubility in aqueous buffers and bio-relevant media; settings: the salt dissociates
[2] = Hygroscopicity, water sorption-desorption isotherm (DVS); format: physicochemical
From the text: Crystalline form F is non-hygroscopic.

[3] = Intrinsic dissolution rate; format: physicochemical
[4] = Stability when blended with excipients; format: physicochemical; settings: four excipients (gelatin, HPMC, wet granulation mixture, dry blended mixture), 50° C./75% RH
[5] = 1 week
[6] = Granulation simulation experiments (XRPD, DSC); format: physicochemical; settings: ground at 25° C.
Description: The physical stability of crystalline form F was also evaluated in granulation simulation experiments. In these experiments granulating solvent was added dropwise to the crystalline form F until the solid is wetted sufficiently. The mixture was then ground in a mortar/pestle at room temperature (25° C. for 2-3 minutes) between each addition. The crystallinity of the material (post-grinding) was re-evaluated by XRPD and DSC.

[7] = 1 week, 0.1 %, pH 1.2
[8] = Thermal stability of the crystalline form on heating and cooling (XRPD); format: physicochemical; settings: heating to 220° C. (melt) then cooling to 30° C.
[9] = Physical stability on compression (XRPD); format: physicochemical; settings: 5 minutes at 0.5 ton, 0.8 cm diameter disc
Description: The crystallinity of form F was evaluated by XRPD after compression for 5 minutes at 0.5 ton with 0.8 cm diameter disc.

[10] = Phase change on exposure to humidity; format: physicochemical
physchem = settings: aqueous buffer

| Structure (SMILES) | solubility compared with free form F [1] | hygroscopicity ([2]; relative humidity above 70%) | intrinsic dissolution ([3]; 0.01N HCl pH=2) | intrinsic dissolution ([3]; acetate buffer pH 4.7) | intrinsic dissolution ([3]; phosphate buffer pH 6.8) | degradation when blended with excipients [4] | degradation in bulk [5] | form change after granulation simulation ([6]; ethanol as granulation solvent) | form change after granulation simulation ([6]; water as granulation solvent) | degradation in buffer solution [7] | degradation in buffer solutions [7] | crystalline form after heating and cooling [8] | hygroscopicity ([2]; DVS, 25° C.) | moisture absorbed ([2]; DVS, up to 90% relative humidity, 25° C.) | form change after compression [9] | intrinsic dissolution ([3]; 0.01N HCl pH=2, listed as form F) | intrinsic dissolution ([3]; acetate buffer pH 4.7, listed as form F) | intrinsic dissolution ([3]; phosphate buffer pH 6.8, listed as form F) | phase change on exposure to humidity [10] | solubility (physchem) |
| --- | --- | --- | --- | --- | --- | --- | --- | --- | --- | --- | --- | --- | --- | --- | --- | --- | --- | --- | --- | --- |
| Nc1nc(-n2cccn2)nc(-n2cccn2)c1Br [Form C, 5-bromo-2,6-di(1H-pyrazol-1-yl)pyrimidin-4-amine] | does not show any better solubility than the free form F | very hygroscopic | 0.0592 mg/cm^2/min | 0.0264 mg/cm^2/min | 0.0277 mg/cm^2/min | about 1% | – | – | – | – | – | – | – | – | – | – | – | – | – | – |
| Nc1nc(-n2cccn2)nc(-n2cccn2)c1Br [Form F, 5-bromo-2,6-di(1H-pyrazol-1-yl)pyrimidin-4-amine] | – | – | – | – | – | – | less than 1% | no form change | no form change | 1% | less than 0.5% | remains unchanged | non-hygroscopic | less than 0.2% | no form change | 0.0115 mg/cm^2/min | 0.0085 mg/cm^2/min | 0.0084 mg/cm^2/min | little to no phase change | ~100 µg/mL (≈ 327 µM) |
